Measurements from article PMC4334692 (Bioorganic & medicinal chemistry letters, 2015).

Experiments:
rat cortical neurons = conditions: ref [4]; cited from earlier work
[1] = system: Alzheimer's disease (AD) mice; conditions: novel object recognition and Morris water maze tests, ref [4]; cited from earlier work
STEP = molecular target: T1, STEP (Homo sapiens, UniProt P54829); assay: Second order rate of inactivation of STEP; format: biochemical; conditions: no GSH added; quadruplicate, mean ± S.D.
T1 sequence (P54829 1-565): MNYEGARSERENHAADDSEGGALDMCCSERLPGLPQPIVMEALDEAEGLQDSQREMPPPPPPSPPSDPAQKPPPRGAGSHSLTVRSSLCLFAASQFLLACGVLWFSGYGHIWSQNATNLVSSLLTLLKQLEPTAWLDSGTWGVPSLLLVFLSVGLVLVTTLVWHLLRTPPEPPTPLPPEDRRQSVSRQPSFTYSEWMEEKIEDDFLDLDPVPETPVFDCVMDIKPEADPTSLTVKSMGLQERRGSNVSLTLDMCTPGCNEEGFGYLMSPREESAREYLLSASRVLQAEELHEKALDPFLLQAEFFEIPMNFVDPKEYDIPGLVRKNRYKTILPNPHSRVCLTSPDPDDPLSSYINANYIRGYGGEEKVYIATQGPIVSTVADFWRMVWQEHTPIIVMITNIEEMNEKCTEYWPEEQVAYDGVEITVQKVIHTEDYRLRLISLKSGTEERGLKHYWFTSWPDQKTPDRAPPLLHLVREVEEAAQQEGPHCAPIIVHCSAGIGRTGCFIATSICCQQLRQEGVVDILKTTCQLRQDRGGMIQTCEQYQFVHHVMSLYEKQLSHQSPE

Compound	phosphorylation levels of STEP substrates GluN2B, Pyk2 and ERK1/2 (rat cortical neurons)	cognitive deficits [1]	Kinact/Ki (STEP)
Cl.Nc1cc(C(F)(F)F)cc2c1SSSSS2 [TC-2153, 8-(trifluoromethyl)-1,2,3,4,5-benzopentathiepin-6-amine hydrochloride]	enhanced the phosphorylation levels	reduced cognitive deficits	–
O=C(Nc1cc(C(F)(F)F)cc2c1SSSSS2)C(F)(F)F [Compound 23]	–	–	161,000 ± 26,000 M^-1S^-1
